Key:
[1] = system: SNB-19; test: Antitumor activity against human SNB19 cells after 24 hrs; format: functional, cell-based; details: SNB-19, 24 h
[2] = system: EKVX; test: Growth inhibition of human EKVX cells at 10 uM after 24 hrs by MTT assay relative to control; format: functional; parameters: scale not given: the % may be the effect or the level left
[3] = system: HOP-62; test: Growth inhibition of human HOP62 cells at 10 uM after 24 hrs by MTT assay relative to control; format: functional; parameters: scale not given: the % may be the effect or the level left
[4] = system: NCI-H522; test: Growth inhibition of human NCI-H522 cells at 10 uM after 24 hrs by MTT assay relative to control; format: functional; parameters: scale not given: the % may be the effect or the level left
[5] = system: BT-549; test: Growth inhibition of human BT549 cells at 10 uM after 24 hrs by MTT assay relative to control; format: functional; parameters: scale not given: the % may be the effect or the level left
[6] = system: MDA-MB-435; test: Growth inhibition of human MDA-MB-435 cells at 10 uM after 24 hrs by MTT assay relative to control; format: functional; parameters: scale not given: the % may be the effect or the level left
[7] = system: T47D; test: Growth inhibition of human T47D cells at 10 uM after 24 hrs by MTT assay relative to control; format: functional; parameters: scale not given: the % may be the effect or the level left
[8] = system: OVCAR-5; test: Growth inhibition of human OVCAR5 cells at 10 uM after 24 hrs by MTT assay relative to control; format: functional; parameters: scale not given: the % may be the effect or the level left
[9] = system: OVCAR-8; test: Growth inhibition of human OVCAR8 cells at 10 uM after 24 hrs by MTT assay relative to control; format: functional; parameters: scale not given: the % may be the effect or the level left
[10] = system: K562; test: Growth inhibition of human K562 cells at 10 uM after 24 hrs by MTT assay relative to control; format: functional; parameters: scale not given: the % may be the effect or the level left
[11] = system: MOLT-4; test: Growth inhibition of human MOLT4 cells at 10 uM after 24 hrs by MTT assay relative to control; format: functional; parameters: scale not given: the % may be the effect or the level left
[12] = system: 786-0; test: Growth inhibition of human 786-0 cells at 10 uM after 24 hrs by MTT assay relative to control; format: functional; parameters: scale not given: the % may be the effect or the level left
[13] = system: ACHN; test: Growth inhibition of human ACHN cells at 10 uM after 24 hrs by MTT assay relative to control; format: functional; parameters: scale not given: the % may be the effect or the level left
[14] = system: UO-31; test: Growth inhibition of human UO31 cells at 10 uM after 24 hrs by MTT assay relative to control; format: functional; parameters: scale not given: the % may be the effect or the level left
[15] = system: LOX IMVI; test: Growth inhibition of human LOXIMVI cells at 10 uM after 24 hrs by MTT assay relative to control; format: functional; parameters: scale not given: the % may be the effect or the level left
[16] = system: SK-MEL-2; test: Growth inhibition of human SK-MEL-2 cells at 10 uM after 24 hrs by MTT assay relative to control; format: functional; parameters: scale not given: the % may be the effect or the level left
[17] = system: SK-MEL-28; test: Growth inhibition of human SK-MEL-28 cells at 10 uM after 24 hrs by MTT assay relative to control; format: functional; parameters: scale not given: the % may be the effect or the level left
[18] = system: SK-MEL-5; test: Growth inhibition of human SK-MEL-5 cells at 10 uM after 24 hrs by MTT assay relative to control; format: functional; parameters: scale not given: the % may be the effect or the level left
[19] = system: UACC-257; test: Growth inhibition of human UACC257 cells at 10 uM after 24 hrs by MTT assay relative to control; format: functional; parameters: scale not given: the % may be the effect or the level left
[20] = system: PC-3; test: Growth inhibition of human PC3 cells at 10 uM after 24 hrs by MTT assay relative to control; format: functional; parameters: scale not given: the % may be the effect or the level left
[21] = system: SF-295; test: Growth inhibition of human SF295 cells at 10 uM after 24 hrs by MTT assay relative to control; format: functional; parameters: scale not given: the % may be the effect or the level left
[22] = system: SF-539; test: Growth inhibition of human SF539 cells at 10 uM after 24 hrs by MTT assay relative to control; format: functional; parameters: scale not given: the % may be the effect or the level left
[23] = system: SNB-19; test: Growth inhibition of human SNB19 cells at 10 uM after 24 hrs by MTT assay relative to control; format: functional; parameters: scale not given: the % may be the effect or the level left
[24] = system: CCRF-CEM; test: Growth inhibition of human CCRF-CEM cells after 24 hrs by MTT assay; format: functional
[25] = Growth inhibition of human […] cells after 24 hrs by MTT assay; format: functional
[26] = system: NCI-H322M; test: Growth inhibition of human NCI-H322M cells after 24 hrs by MTT assay; format: functional
[27] = system: NCI-H522; test: Growth inhibition of human NCI-H522 cells after 24 hrs by MTT assay; format: functional; details: NCI-H522, 24 h
[28] = system: KM12; test: Growth inhibition of human KM12 cells after 24 hrs by MTT assay; format: functional; details: KM12, 24 h
[29] = system: SF-539; test: Growth inhibition of human SF539 cells after 24 hrs by MTT assay; format: functional; details: SF-539, 24 h
[30] = system: LOX IMVI; test: Growth inhibition of human LOXIMVI cells after 24 hrs by MTT assay; format: functional
[31] = system: M14; test: Growth inhibition of human M14 cells after 24 hrs by MTT assay; format: functional; details: M14, 24 h
[32] = system: UACC-257; test: Growth inhibition of human UACC257 cells after 24 hrs by MTT assay; format: functional; details: UACC-257, 24 h
[33] = system: UACC-62; test: Growth inhibition of human UACC62 cells after 24 hrs by MTT assay; format: functional; details: UACC-62, 24 h
[34] = system: 786-0; test: Growth inhibition of human 786-0 cells after 24 hrs by MTT assay; format: functional; details: 786-0, 24 h
[35] = system: ACHN; test: Growth inhibition of human ACHN cells after 24 hrs by MTT assay; format: functional
[36] = system: DU-145; test: Growth inhibition of human DU145 cells after 24 hrs by MTT assay; format: functional; details: DU-145, 24 h
[37] = system: MDA-MB-231; test: Growth inhibition of human MDA-MB-231 cells after 24 hrs by MTT assay; format: functional; details: MDA-MB-231, 24 h
[38] = Growth inhibition of human Hs 578T cells after 24 hrs by MTT assay; format: functional
[39] = read-out: LC50 (the source's name)
[40] = read-out: pLC50 (the source's name) (converted)

Cc1onc(-c2c3ccccc3c(Cl)c3ccccc23)c1C(=O)Nc1cc(C(=O)NCCCN(C)CCCNC(=O)c2cc(NC(=O)c3c(-c4c5ccccc5c(Cl)c5ccccc45)noc3C)cn2C)n(C)c1
IC50 [1]: 4.75 µM
Activity [2]: -58.5%
Activity [3]: -87.55%
Activity [4]: -85.33%
Activity [5]: -49.26%
Activity [6]: -100%
Activity [7]: -81.41%
Activity [8]: -85.02%
Activity [9]: -63.16%
Activity [10]: -100%
Activity [11]: -100%
Activity [12]: -81.64%
Activity [13]: -100%
Activity [14]: -80.7%
Activity [15]: -100%
Activity [16]: -77.54%
Activity [17]: -100%
Activity [18]: -100%
Activity [19]: -60.8%
Activity [20]: -100%
Activity [21]: -75.66%
Activity [22]: -100%
Activity [23]: -100%
TGI [24]: 3.55 µM
GI50 ([24]; read-out: GI50): 1.6 µM
CC50 [24, 39]: 7.9 µM
GI50 ([24]; read-out: pGI50 (converted)): 1.58 µM
CC50 [24, 40]: 7.94 µM
TGI [25]: 3.38 µM
GI50 ([25]; read-out: GI50): 1.39 µM
CC50 [25, 39]: 8.21 µM
GI50 ([25]; read-out: pGI50 (converted)): 1.38 µM
CC50 [25, 40]: 8.13 µM
TGI [26]: 4.87 µM
GI50 ([26]; read-out: GI50): 2.18 µM
CC50 [26, 39]: 14.6 µM
GI50 ([26]; read-out: pGI50 (converted)): 2.19 µM
CC50 [26, 40]: 14.5 µM
TGI [27]: 3.51 µM
GI50 ([27]; read-out: GI50): 1.59 µM
GI50 ([27]; read-out: pGI50 (converted)): 1.58 µM
TGI [28]: 2.63 µM
GI50 ([28]; read-out: GI50): 1.35 µM
GI50 ([28]; read-out: pGI50 (converted)): 1.35 µM
TGI [29]: 2.72 µM
GI50 ([29]; read-out: GI50): 1.42 µM
CC50 [29, 39]: 5.22 µM
GI50 ([29]; read-out: pGI50 (converted)): 1.41 µM
CC50 [29, 40]: 5.25 µM
TGI [30]: 2.96 µM
GI50 ([30]; read-out: GI50): 1.38 µM
GI50 ([30]; read-out: pGI50 (converted)): 1.38 µM
TGI [31]: 2.8 µM
GI50 ([31]; read-out: GI50): 1.48 µM
CC50 [31, 39]: 5.29 µM
GI50 ([31]; read-out: pGI50 (converted)): 1.48 µM
CC50 [31, 40]: 5.25 µM
TGI [32]: 4.63 µM
GI50 ([32]; read-out: GI50): 2.15 µM
GI50 ([32]; read-out: pGI50 (converted)): 2.14 µM
TGI [33]: 3.44 µM
GI50 ([33]; read-out: GI50): 1.7 µM
GI50 ([33]; read-out: pGI50 (converted)): 1.7 µM
TGI [34]: 4.94 µM
GI50 ([34]; read-out: GI50): 2.13 µM
CC50 [34, 39]: 16.7 µM
GI50 ([34]; read-out: pGI50 (converted)): 2.14 µM
CC50 [34, 40]: 16.6 µM
TGI [35]: 3.04 µM
GI50 ([35]; read-out: GI50): 1.63 µM
GI50 ([35]; read-out: pGI50 (converted)): 1.62 µM
TGI [36]: 2.6 µM
GI50 ([36]; read-out: GI50): 1.33 µM
CC50 [36, 39]: 5.1 µM
GI50 ([36]; read-out: pGI50 (converted)): 1.32 µM
CC50 [36, 40]: 5.13 µM
TGI [37]: 2.76 µM
GI50 ([37]; read-out: GI50): 1.37 µM
GI50 ([37]; read-out: pGI50 (converted)): 1.38 µM
TGI [38]: 2.94 µM
GI50 ([38]; read-out: GI50): 1.15 µM
GI50 ([38]; read-out: pGI50 (converted)): 1.15 µM

Reference: ChEMBL document CHEMBL1152405, “Bis-anthracenyl isoxazolyl amides have enhanced anticancer activity” (Bioorg Med Chem Lett, 2009)
